Source: patent US20240148745A1, “COMPOUNDS FOR USE IN PROGRESSIVE MULTIPLE SCLEROSIS” (FONDAZIONE CENTRO SAN RAFFAELE, priority 2021, published 2024)

Legend:
[1] = tested on: LPC-induced demyelinated lesions of the mouse spinal cord; experiment: LPC model of focal demyelination of the mouse spinal cord; type: in vivo
[2] = tested on: primary human A2B5+ pre-oligodendrocytes; experiment: Ensheathment by primary human A2B5+ oligodendrocyte lineage cells; type: cell-based; conditions: for percentage of ensheathed O4+ cells: human adult A2B5+ cells, 14 days
Method: FIG. 49. […] The experiments were conducted using primary human oligodendrocyte lineage cells obtained from surgically derived tissue specimens. Specimens were derived either from adults or pediatric age groups. […] Percentages of ensheathed O4+ cells were calculated by the total ensheathed O4+ cells out of total O4+ cells. HA-human adult, HP-human pediatric. *p<0.05.

S1R (Sigma 1 Receptor) = biological target: T1, S1R (Sigma 1 Receptor) (Rattus norvegicus, UniProt Q9R0C9); experiment: CETSA target engagement in CG-4 cell lysates; type: binding; conditions: 100 μM, 15 minutes, 52-77° C.
T1 construct: endogenous in cells; host or cells: CG-4 oligodendrocyte cell line (rat), lysate
Method: FIG. 32. […] Samples were heated at increasing temperatures (52-77° C.) and the soluble fractions were subjected to western blot. […] The immunoblot is representative of 4 biological replicates. Band quantification was performed by ImageJ software and the signal intensity of the thermostable protein was normalized to the respective intensity at 52° C. Protein amount at the other temperatures is represented as % of protein at 52° C. Data are means±the standard error of biological quadruplicates measurements and their statistical significance was evaluated by the Student's t-test (*** p<0.001; **p<0.01; *p<0.05).

[3] = tested on: iPSC-derived neurons (DIV45); conditions: human
Method: This protocol was modified from Yuchen Qi et al.^32 First, neural progenitors (NPCs) were generated from hiPSCs by dual-SMAD inhibition. Shortly, at day 0 iPSC colonies (confluent at 70-80%) were washed with PBS Dulbecco's w/o Calcium w/o Magnesium (Euroclone) and hiPSCs' maintenance medium (mTeSR™, StemCell Technologies) was replaced with neural induction medium composed by DMEM/F12 plus N2 medium (1×), B27 without RA supplement (0.5×) (Life Technology), added with SB431542 (10 μM) and LDN (500 nM). This medium was kept until day 4 (“induction”). At day 4, cells were splitted (1:3) with the same induction medium using Accutase®/Accumax™ (StemCell Technologies) dissociated solution. Entire medium was replaced daily up to days 14-16 until rosette formation was observed (“patterning”). At days 14-16, cells were detached by Accutase®/Accumax™ and re-plated on polyornitine/laminin/fibronectin coated MW96 or MW24 plates for terminal differentiation in Neurobasal medium supplemented with B27 (0.5×), BDNF (20 ng/ml), dbcAMP (500 μM), ascorbic acid (200 μM), PD0325901 (1 μM), SU5402 (5 μM), CHIR (3 μM), human recombinant insulin (5 μg/ml), supplemented with RI (Rock inhibitor) (1:3000) to reduce dissociation induced apoptosis. The half of differentiation medium was changed every 3-4 days, supplemented with 1 μg/ml laminin and DAPT (1-2 μM) until terminal maturation of neuronal population (MAP2+ cells). Cultures were characterized by immunocytochemistry and qRT-PCR and neuroprotective experiments were performed on days 30-40 of differentiation.
Evaluation of cytotoxicity of 160 selected compounds on iPSC-derived neurons (DIV45).

[4] = tested on: mouse cortical and striatal neurons; experiment: Morphological integrity evaluation, NMDA 20 μM; type: cell-based; conditions: 1 μM, 24 h pre-treatment, NMDA 20 μM 24 h
Method: Morphological integrity evaluation. Mouse cortical and striatal neurons (14 DIV) cultured in MW96 plates were exposed to 1 uM to 60 uM concentrations of NMDA and relationship between the NMDA dose and fiber length was evaluated. […] Each of the compound was tested in quadruplicate. The fiber length was evaluated by MAP2 staining (please see the method described earlier).
42 compounds were screened to evaluate the morphological integrity of cortical and striatal neurons upon chronic (24 h) NMDA exposure at concentration of 20 μM with compounds pre-treatment (24 h) in preventive regimen (FIG. 17).

[5] = tested on: human embryonic and fetal neural precursors (hufNPCs); experiment: hufNPC differentiation towards TUJ1+ neurons; type: cell-based; conditions: 1 μM, 7 days
Method: First, fresh human fetal brain tissues were mechanically dissociated, followed by enzymatic dissociation with Trypsin (LONZA (BE17-161E) 1:5) in growth medium for 5-10 min at 37° C., 5% O2 e 5% CO2, then washed with 10% Australian FBS in fresh medium and centrifuged 15 min at 200 g. Cells were plated in T25 flask in Neural stem cell growth medium (NeuroCult-XF Basal Medium (cat. #05760)+ NeuroCult-XF Proliferation supplement (cat. #05763) (for Human Neural Stem Cells) […] TECHNOLOGIES+human recombinant carrier-free EGF (cat. #1325 9510 00) and bFGF (cat. #1370 9505 00) (Provitro) at final concentration of 20 ng/ml) at 37° C., 5% O2 e 5% CO2. After 15-25 days, enzymatic (Accumax®, StarFish cat. #GMP-102470) dissociation of neurospheres or subconfluent adherent cells was performed and cells were re-plated at density (25000 cells/cm2) in NGM. […] Pro-differentiating properties of 160 compounds were evaluated by co-incubating freshly seeded in 96 well plate hufNPCs with 1 μM compounds for 7 days (each compound was tested in triplicate). […] After one week, cells were fixed and analyzed via immunocytochemistry. […] 15 images per well were acquired and analyzed by CellProfiler. Number of TUJ1+/DAPI cells was counted and compared to DMSO.
160 selected non-toxic compounds pro-differentiating properties were evaluated on human embryonic and fetal neural precursors (hufNPCs). […]

[6] = 30 mg/kg daily oral gavage, 14 dpi

T1 sequence (Q9R0C9 whole entry): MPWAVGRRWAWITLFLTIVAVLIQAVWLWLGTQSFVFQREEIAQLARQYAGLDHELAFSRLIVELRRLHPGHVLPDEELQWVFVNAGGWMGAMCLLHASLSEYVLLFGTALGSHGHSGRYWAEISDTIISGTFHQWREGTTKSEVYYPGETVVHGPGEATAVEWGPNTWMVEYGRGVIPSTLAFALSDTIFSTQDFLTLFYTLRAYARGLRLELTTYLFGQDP

| SMILES | toxicity on dissociated cultures [2] | percentage of ensheathed O4+ cells [2] | viability compared to DMSO [3] | morphological integrity (neurite length) of cortical and striatal neurons [4] | also measured |
| --- | --- | --- | --- | --- | --- |
| O=C(c1ccc(CN2CCOCC2)cc1)N1CCN(C2CC2)CC1 [Bavisant] | No evidence of toxicity | promote ensheathment of adult brain derived A2B5+ cells | – | – | density of Olig2+CC1+ differentiated oligodendrocytes in LPC lesions ([1]; 30 mg/kg daily oral gavage, 5 to 14 dpi, readout 14 dpi): significantly increased the density of mature oligodendrocytes; % of remyelinated axons in the lesion [1, 6]: significantly increased the number of remyelinated axons; axonal density in LPC lesions [1, 6]: not changes; G-ratio ([1]; control vs treated, p<0.0001): enhances remyelination in vivo; thermostability of S1R (CETSA, western blot) (S1R (Sigma 1 Receptor)): thermostability of S1R in the presence of Bavisant |
| CC(=O)N1CCN([C@H]2CCN(C(=O)N(C)[C@H](C)c3cc(C(F)(F)F)cc(C(F)(F)F)c3)[C@@H](c3ccc(F)cc3C)C2)CC1 [Casopitant] | No evidence of toxicity | promote ensheathment of adult brain derived A2B5+ cells | 65-80% | selected for confirmation | – |
| NCCCC[C@H](NC(=O)[C@@H](Cc1cc(Br)c(O)c(Br)c1)NC(=O)N1CCC(N2Cc3ccccc3NC2=O)CC1)C(=O)N1CCN(c2ccncc2)CC1 [Olcegepant] | – | – | – | selected for confirmation | – |
| O=C(NOC[C@H](O)CO)c1ccc(F)c(F)c1Nc1ccc(I)cc1F [PD-0325901] | – | – | 65-80% | – | – |
| CC1(C)CCC(C)(C)c2cc(NC(=O)c3ccc(C(=O)O)cc3)ccc21 [Tamibarotene] | – | – | – | – | neuronal differentiation (TUJ1+/DAPI cells vs DMSO) [5]: significantly promoted neuronal differentiation compared to DMSO and heparin |
